Reference: patent US8609644B2, “Amino derivatives of androstanes and androstenes as medicaments for cardiovascular disorders” (priority 2006, dated 2013)
Structures can show the parent of a compound that is named as a salt.

Target: Na+, K+-ATPase (Canis lupus familiaris, UniProt P50997)
Experiment: biochemical
Design: species or system dog
Conditions: Na+, K+-ATPase Inhibition IC50

SMILES	IC50 [nM]
C=C1C[C@H]2[C@@H]3CCC(=O)[C@@]3(C)CC[C@@H]2[C@@]2(C)CCC(=NOCCNC)C[C@]12O (mixture of isomers) [I-cg, (E,Z) 3-(2-N-Methylaminoethoxyimino)-5α-hydroxy-6-methylenandrostan-17-one hydrochloride]	2600
CC12CCC3C(CC(=CC#N)C4CC(=NOCCN)CCC43C)C1CCC2=O (stereo not drawn) [I-bi, (E) 3-(2-Aminoethoxyimino)-17-oxoandrostane-6-(E)-ylideneacetonitrile hydrochloride]	1700
C=C1CC2CC(=NOCCN)CCC2(C)C2CCC3(C)C(=O)CCC3C12 (mixture of isomers) [I-bx, (E,Z) 3-(2-Aminoethoxyimino)-7-methyleneandrostane-17-one hydrochloride]	400
C/C=C1\C[C@@H]2[C@H](CC[C@]3(C)C(=O)CC[C@@H]23)[C@@]2(C)CCC(=NOCCN)C[C@H]12 (mixture of isomers) [I-bg, (E,Z) 3-(2-Aminoethoxyimino)-6-(E)-ethylidenandrostan-17-one hydrochloride]	1100
C=C1C[C@H]2[C@@H]3CCC(=O)[C@@]3(C)CC[C@@H]2[C@@]2(C)CCC(=NOCCCNC)C[C@]12O (mixture of isomers) [I-ct, (E,Z) 3-(3-N-Methylaminopropoxyimino)-5α-hydroxy-6-methylenandrostan-17-one hydrochloride]	1400
CC12CCC3C(CC(=CCO)C4CC(=NOCCN)CCC43C)C1CCC2=O (mixture of isomers) [I-bj, (E,Z) 3-(2-Aminoethoxyimino)-6-(E)-[2-hydroxyethylidene]androstan-17-one hydrochloride]	770
CC1CC2C3CCC(=O)C3(C)CCC2C2(C)CCC(=NOCCN)CC12 (single isomer, unassigned) [I-az, (E,Z) 3-(2-Aminoethoxyimino)-6β-methylandrostan-17-one hydrochloride]	6000
CC12CCC3C(C(=C(F)F)CC4CC(=NOCCN)CCC43C)C1CCC2=O (mixture of isomers) [I-ep, (E,Z) 3-(2-Aminoethoxyimino)-7-difluoromethyleneandrostane-17-one hydrochloride]	87
C#CC1CC2C3CCC(=O)C3(C)CCC2C2(C)CCC(=NOCCCNC)CC12 (stereo not drawn) [I-cq, (E,Z) 3-(3-N-Methylaminopropoxyimino)-6α-ethynylandrostan-17-one hydrochloride]	1200

Same assay, conditions: dog kidney enzyme; read-out: Na+, K+-ATPase Inhibition IC50

SMILES	IC50 [nM]
CC12CCC3C(CC(O[N+](=O)[O-])C4CC(=NOCCN)CCC43C)C1CCC2=O (single isomer, unassigned) [I-ab, (E,Z) 3-(2-Aminoethoxyimino)-17-oxoandrostane-6β-yl nitrate fumarate]	2900
CC(=O)OCC1CC2C3CCC(=O)C3(C)CCC2C2(C)CCC(=NOCCN)CC12 (stereo not drawn) [I-ap, (E,Z) 3-(2-Aminoethoxyimino)-6α-acetoxymethylandrostan-17-one fumarate]	3000
CNCCCON=C1CCC2(C)C(C1)C(C(=O)OC)CC1C3CCC(=O)C3(C)CCC12 (mixture of isomers) [I-cm, (Z,E) 3-(3-N-Methylaminopropoxyimino)-6α-methoxycarbonylandrostan-17-one hydrochloride]	4000
COC(=O)C=C1CC2C3CCC(=O)C3(C)CCC2C2(C)CCC(=NOCCN)CC12 (mixture of isomers) [I-bk, Methyl [3-(E,Z)-(2-aminoethoxyimino)-17-oxoandrostane-6-(E)-ylidene]-acetate hydrochloride]	64000
CNCCCON=C1CC[C@@]2(C)[C@H](C1)C[C@H](CO)[C@@H]1[C@@H]2CC[C@]2(C)C(=O)CC[C@@H]12 (mixture of isomers) [I-cw, (E,Z) 3-(3-N-Methylaminopropoxyimino)-7β-hydroxymethylandrostane-17-one hydrochloride]	2300
CC12CCC3C(CC(C(=O)O)C4CC(=NOCCN)CCC43C)C1CCC2=O (mixture of isomers) [I-ar, (E,Z) 3-(2-Aminoethoxyimino)-6α-carboxyandrostan-17-one hydrochloride]	16000
CNCCCON=C1CCC2(C)C3CCC4(C)C(=O)CCC4C3CC3(CC3)C2C1 (mixture of isomers) [I-cp, (E,Z) 3-(3-N-Methylaminopropoxyimino)-6-(spirocyclopropane)androstan-17-one hydrochloride]	1300
CC12CCC3C(C(=O)C(CO)C4CC(=NOCCN)CCC43C)C1CCC2=O (mixture of isomers) [I-cd, (E,Z) 3-(2-Aminoethoxyimino)-6α-hydroxymethylandrostane-7,17-dione hydrochloride]	12
CC12CCC3C(CC(CNC=O)C4CC(=NOCCN)CCC43C)C1CCC2=O (mixture of isomers) [I-bn, (E,Z) 3-(2-Aminoethoxyimino)-6α-formamidomethylandrostane-17-one hydrochloride]	5100
CCON=C1CC2C3CCC(=O)C3(C)CCC2C2(C)CCC(=NOCCN)CC12 (mixture of isomers) [I-ax, (E,Z)-3-(2-Aminoethoxyimino)-6-(E)-ethoxyiminoandrostan-17-one hydrochloride]	1700
CNCCCON=C1CCC2(C)C(C1)CC1(CC1)C1C3CCC(=O)C3(C)CCC12 (mixture of isomers) [I-cv, (E,Z) 3-(3-N-Methylaminopropoxyimino)-7-(spirocyclopropane)androstan-17-one hydrochloride]	740
C=CCON=C1CC2C3CCC(=O)C3(C)CCC2C2(C)CCC(=NOCCN)CC12 (stereo not drawn) [I-ay, (E,Z)-3-(2-Aminoethoxyimino)-6-(E)-allyloxyiminoandrostan-17-one fumarate]	43000
C=CCON=C1CC2CC(=NOCCN)CCC2(C)C2CCC3(C)C(=O)CCC3C12 (mixture of isomers) [I-bu, (E,Z)-3-(2-Aminoethoxyimino)-7-(E)-allyloxyiminoandrostan-17-one fumarate]	3800
C[C@]12CCC(=NOCCN)C[C@@H]1CC1(CC1)[C@@H]1[C@@H]2CC[C@]2(C)C(=O)CC[C@@H]12 (mixture of isomers) [I-cb, (E,Z) 3-(2-Aminoethoxyimino)-7-(spirocyclopropane)androstan-17-one hydrochloride]	130
CC12CCC3C(CC(C#N)C4CC(=NOCCN)CCC43C)C1CCC2=O (mixture of isomers) [I-ac, (E,Z) 3-(2-Aminoethoxyimino)-6α-cyanoandrostan-17-one fumarate]	1100
CC12CCC3C(CC(CO)C4CC(=NOCCN)CCC43C)C1CCC2=O (single isomer, unassigned) [I-aj, (E,Z) 3-(2-Aminoethoxyimino)-6β-hydroxymethylandrostan-17-one hydrochloride]	1600

Same assay, conditions: read-out: Na+, K+-ATPase Inhibition IC50

SMILES	IC50 [nM]
CNCCON=C1CC[C@@]2(C)C(C1)C(=NOC)C[C@@H]1[C@@H]2CC[C@]2(C)C(=O)CC[C@@H]12 (stereo partly drawn) [I-ce, (E,Z) 3-(2-N-Methylaminoethoxyimino)-6-(E)-methoxyiminoandrostan-17-one hydrochloride]	650
C[C@]12CCC(=NOCCN)CC1C[C@@H](NC=O)[C@@H]1[C@@H]2CC[C@]2(C)C(=O)CC[C@@H]12 (stereo partly drawn) [I-bw, (E,Z)-3-(2-Aminoethoxyimino)-7α-formamidoandrostane-3,17-dione hydrochloride]	6000
C=C1C[C@@H]2[C@H](CC[C@]3(C)C(=O)CC[C@@H]23)[C@@]2(C)CC[C@@H]([S@+]([O-])CCCN)CC12 (stereo partly drawn) [I-ec, 3α-[(R)-3-Aminopropylsulfinyl]-6-methyleneandrostane-17-one fumarate]	80000
C=C1C[C@@H]2[C@H](CC[C@]3(C)C(=O)CC[C@@H]23)[C@@]2(C)CCC(=NOCCN)CC12 (stereo partly drawn) [I-ah, (E,Z) 3-(2-Aminoethoxyimino)-6-methyleneandrostan-17-one hydrochloride]	42
C[C@]12CC[C@H](/C=C\CCN)CC1/C(=N/O)C[C@@H]1[C@@H]2CC[C@]2(C)C(=O)CC[C@@H]12 (stereo partly drawn) [I-de, 3β-(4-Aminobut-1-(Z)-enyl)-6-(E)-hydroxyiminoandrostane-17-one fumarate]	1200
C[C@]12CCC(=NOCCN)CC1C[C@H](CO)[C@@H]1[C@@H]2CC[C@]2(C)C(=O)CC[C@@H]12 (stereo partly drawn) [I-ca, (E,Z) 3-(2-Aminoethoxyimino)-7β-hydroxymethylandrostane-17-one hydrochloride]	910
CNCCCON=C1CC[C@]2(C)[C@H]3CC[C@]4(C)C(=O)CC[C@H]4[C@@H]3CC(=NOC)[C@@]2(O)C1 [I-cs, (E,Z) 3-(3-N-Methylaminopropoxyimino)-5α-hydroxy-6-(E)-methoxyimino-androstane-17-one fumarate]	1100
C[C@]12CCC(=NOCCN)CC1C[C@@H](O)[C@@H]1[C@@H]2CC[C@]2(C)C(=O)CC[C@@H]12 (stereo partly drawn) [I-bv, (E,Z) 3-(2-Aminoethoxyimino)-7α-hydroxyandrostane-17-one fumarate]	520

Test system: anesthetized guinea-pig
Experiment: Inotropic effect and lethal dose, slow intravenous infusion (over 90 minutes) in anesthetized guinea-pig
Conditions: Cavia porcellus, iv, 1.5 h, read-out: ED80 (inotropic potency, dose increasing +dP/dTmax by 80%)

SMILES	ED80 [µmol/kg]
C[C@H]1O[C@@H](O[C@H]2[C@@H](O)C[C@H](O[C@H]3[C@@H](O)C[C@H](O[C@H]4CC[C@@]5(C)[C@H](CC[C@@H]6[C@@H]5C[C@@H](O)[C@]5(C)[C@@H](C7=CC(=O)OC7)CC[C@]65O)C4)O[C@@H]3C)O[C@@H]2C)C[C@H](O)[C@@H]1O [digoxin, reference compound]	0.29
CNCCCON=C1CC[C@]2(C)[C@H]3CC[C@]4(C)C(=O)CC[C@H]4[C@@H]3C/C(=N\O)[C@@]2(O)C1 (mixture of isomers) [I-cr, (E,Z) 3-(3-N-Methylaminopropoxyimino)-5α-hydroxy-6-(E)-hydroxyiminoandrostan-17-one hydrochloride]	1.21

Same assay, conditions: Cavia porcellus, iv, 1.5 h, read-out: EDmax (dose inducing maximum positive inotropic effect)

SMILES	ED (max) [µmol/kg]
C[C@H]1O[C@@H](O[C@H]2[C@@H](O)C[C@H](O[C@H]3[C@@H](O)C[C@H](O[C@H]4CC[C@@]5(C)[C@H](CC[C@@H]6[C@@H]5C[C@@H](O)[C@]5(C)[C@@H](C7=CC(=O)OC7)CC[C@]65O)C4)O[C@@H]3C)O[C@@H]2C)C[C@H](O)[C@@H]1O [digoxin, reference compound]	0.65
CNCCCON=C1CC[C@]2(C)[C@H]3CC[C@]4(C)C(=O)CC[C@H]4[C@@H]3C/C(=N\O)[C@@]2(O)C1 (mixture of isomers) [I-cr, (E,Z) 3-(3-N-Methylaminopropoxyimino)-5α-hydroxy-6-(E)-hydroxyiminoandrostan-17-one hydrochloride]	11.8

Same assay, conditions: Cavia porcellus, iv, 1.5 h, read-out: Emax % increase in +dP/dTmax

SMILES	Emax [%]
C[C@H]1O[C@@H](O[C@H]2[C@@H](O)C[C@H](O[C@H]3[C@@H](O)C[C@H](O[C@H]4CC[C@@]5(C)[C@H](CC[C@@H]6[C@@H]5C[C@@H](O)[C@]5(C)[C@@H](C7=CC(=O)OC7)CC[C@]65O)C4)O[C@@H]3C)O[C@@H]2C)C[C@H](O)[C@@H]1O [digoxin, reference compound]	158
CNCCCON=C1CC[C@]2(C)[C@H]3CC[C@]4(C)C(=O)CC[C@H]4[C@@H]3C/C(=N\O)[C@@]2(O)C1 (mixture of isomers) [I-cr, (E,Z) 3-(3-N-Methylaminopropoxyimino)-5α-hydroxy-6-(E)-hydroxyiminoandrostan-17-one hydrochloride]	180

Same assay, conditions: duration of the inotropic effect

SMILES	% decrease from Emax after 20 min from the end of the infusion [%]
CNCCCON=C1CC[C@]2(C)[C@H]3CC[C@]4(C)C(=O)CC[C@H]4[C@@H]3C/C(=N\O)[C@@]2(O)C1 (mixture of isomers) [I-cr, (E,Z) 3-(3-N-Methylaminopropoxyimino)-5α-hydroxy-6-(E)-hydroxyiminoandrostan-17-one hydrochloride]	47

Same assay, conditions: maximum dose infused in the survived animals

SMILES	Maximum dose infused [µmol/kg]
C[C@H]1O[C@@H](O[C@H]2[C@@H](O)C[C@H](O[C@H]3[C@@H](O)C[C@H](O[C@H]4CC[C@@]5(C)[C@H](CC[C@@H]6[C@@H]5C[C@@H](O)[C@]5(C)[C@@H](C7=CC(=O)OC7)CC[C@]65O)C4)O[C@@H]3C)O[C@@H]2C)C[C@H](O)[C@@H]1O [digoxin, reference compound]	1.16
CNCCCON=C1CC[C@]2(C)[C@H]3CC[C@]4(C)C(=O)CC[C@H]4[C@@H]3C/C(=N\O)[C@@]2(O)C1 (mixture of isomers) [I-cr, (E,Z) 3-(3-N-Methylaminopropoxyimino)-5α-hydroxy-6-(E)-hydroxyiminoandrostan-17-one hydrochloride]	50.4
